Calls of active or inactive are those of the source. How the calls were made is not given here.
Test system: rodent carcinogenicity bioassays, tumor incidence
Experiment: CCRIS carcinogenicity studies
Details: Dose: 0, Dose: 0
Procedure, shortened: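 NCI-built, expert-reviewed records of carcinogenicity and related test outcomes (mutagenicity, tumor promotion/inhibition) compiled from published and report sources, historical span 1985-2011, not updated.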

OCC(CO)NC1CC(O)(CO)C(O)C(O)C1O (stereo not given)
carcinogen call (Species: MOUSE, Strain/Sex: CD-1/FEMALE, Route: GAVAGE, 15, 50, 150 MG/KG/D IN DISTILLED WATER (STUDY DURATION: 105 WK), 15, 50, 150 MG/KG/D IN DISTILLED WATER (STUDY DURATION: 105 WK)): inactive; negative | carcinogen call (Species: MOUSE, Strain/Sex: CD-1/MALE, Route: GAVAGE, 15, 50, 150 MG/KG/D IN DISTILLED WATER (STUDY DURATION: 105 WK), 15, 50, 150 MG/KG/D IN DISTILLED WATER (STUDY DURATION: 105 WK)): inactive; negative | carcinogen call (Species: RAT, Strain/Sex: F344/FEMALE, Route: GAVAGE, 3, 10, 30 MG/KG/D IN DISTILLED WATER FOR 24 MO (STUDY DURATION: 110 WK), 3, 10, 30 MG/KG/D IN DISTILLED WATER FOR 24 MO (STUDY DURATION: 110 WK)): inactive; negative | carcinogen call (Species: RAT, Strain/Sex: F344/MALE, Route: GAVAGE, 3, 10, 30 MG/KG/D IN DISTILLED WATER FOR 24 MO (STUDY DURATION: 110 WK), 3, 10, 30 MG/KG/D IN DISTILLED WATER FOR 24 MO (STUDY DURATION: 110 WK)): inactive; negative

Oc1cccc(O)c1
carcinogen call (Species: MOUSE, Strain/Sex: B6C3F1/FEMALE, Route: GAVAGE, 112, 225 MG/KG IN DEIONIZED WATER 5 D/WK FOR 104 WK (STUDY DURATION: 104 WK), 112, 225 MG/KG IN DEIONIZED WATER 5 D/WK FOR 104 WK (STUDY DURATION: 104 WK)): inactive; negative | carcinogen call (Species: MOUSE, Strain/Sex: B6C3F1/MALE, Route: GAVAGE, 112, 225 MG/KG IN DEIONIZED WATER 5 D/WK FOR 104 WK (STUDY DURATION: 104 WK), 112, 225 MG/KG IN DEIONIZED WATER 5 D/WK FOR 104 WK (STUDY DURATION: 104 WK)): inactive; negative | carcinogen call (Species: RAT, Strain/Sex: F344/FEMALE, Route: GAVAGE, 50, 100, 150 MG/KG IN DEIONIZED WATER 5 D/WK FOR 104 WK (STUDY DURATION: 104 WK), 50, 100, 150 MG/KG IN DEIONIZED WATER 5 D/WK FOR 104 WK (STUDY DURATION: 104 WK)): inactive; negative | carcinogen call (Species: RAT, Strain/Sex: F344/MALE, Route: GAVAGE, 112, 225 MG/KG IN DEIONIZED WATER 5 D/WK FOR 104 WK (STUDY DURATION: 104 WK), 112, 225 MG/KG IN DEIONIZED WATER 5 D/WK FOR 104 WK (STUDY DURATION: 104 WK)): inactive; negative

CCCCC(=O)O[C@H]1CC[C@H]2[C@@H]3CCc4cc(O)ccc4[C@H]3CC[C@]12C
carcinogen call (Species: RAT, Strain/Sex: STRAIN-CD/MALE, Route: SUBCUTANEOUS, 1 MG IN CASTOR OIL 1/4 WK FOR LIFE (STUDY DURATION: LIFE), Tumor Site: Type of Lesion: MAMMARY GLAND: TUMOR): active; positive

COC(=O)C1=CCCN(N=O)C1
carcinogen call (Species: RAT, Strain/Sex: F344/MALE, Route: ORAL, 20 PPM IN DRINKING WATER FOR DURATION OF STUDY (TOTAL DOSE: 0; 4.1 MMOL/KG) (STUDY DURATION: 128 WK), 20 PPM IN DRINKING WATER FOR DURATION OF STUDY (TOTAL DOSE: 0; 4.1 MMOL/KG) (STUDY DURATION: 128 WK), Tumor Site: Type of Lesion: EXOCRINE PANCREAS: ACINAR ADENOMA): active; positive

FC(F)(F)C(Cl)Cl
carcinogen call (Species: RAT, Strain/Sex: CRL:CDBR/FEMALE, Route: INHALATION, 300, 1000, 5000 PPM 6 HR/D 5 D/WK FOR 2 YR (STUDY DURATION: 2 YR), 300, 1000, 5000 PPM 6 HR/D 5 D/WK FOR 2 YR (STUDY DURATION: 2 YR), Tumor Site: Type of Lesion: LIVER: ADENOMA, CHOLANGIOFIBROMA): active; positive | carcinogen call (Species: RAT, Strain/Sex: CRL:CDBR/MALE, Route: INHALATION, 300, 1000, 5000 PPM 6 HR/D 5 D/WK FOR 2 YR (STUDY DURATION: 2 YR), 300, 1000, 5000 PPM 6 HR/D 5 D/WK FOR 2 YR (STUDY DURATION: 2 YR), Tumor Site: Type of Lesion: LIVER: ADENOMA, PANCREAS: ADENOMA, TESTES: ADENOMA, Tumor Site: Type of Lesion: LIVER: ADENOMA, PANCREAS: ADENOMA, TESTES: ADENOMA): active; positive

CCn1cc(C(=O)O)c(=O)c2ccc(C)nc21
carcinogen call (Species: MOUSE, Strain/Sex: B6C3F1/FEMALE, Route: ORAL, 2000, 4000 PPM IN FEED FOR 103 WK (STUDY DURATION: 104 WK), 2000, 4000 PPM IN FEED FOR 103 WK (STUDY DURATION: 104 WK)): inactive; negative | carcinogen call (Species: MOUSE, Strain/Sex: B6C3F1/MALE, Route: ORAL, 2000, 4000 PPM IN FEED FOR 103 WK (STUDY DURATION: 104 WK), 2000, 4000 PPM IN FEED FOR 103 WK (STUDY DURATION: 104 WK), Tumor Site: Type of Lesion: INTEGUMENTARY SYSTEM (SUBCUTANEOUS TISSUE): FIBROMA OR FIBROSARCOMA): equivocal | carcinogen call (Species: RAT, Strain/Sex: F344/FEMALE, Route: ORAL, 2000, 4000 PPM IN FEED FOR 103 WK (STUDY DURATION: 104 WK), 2000, 4000 PPM IN FEED FOR 103 WK (STUDY DURATION: 104 WK), Tumor Site: Type of Lesion: CLITORAL GLAND: ADENOMA, ADENOMA OR PAPILLOMA, ADENOMA OR PAPILLOMA OR CARCINOMA OR PAPILLARY CARCINOMA): active; positive | carcinogen call (Species: RAT, Strain/Sex: F344/MALE, Route: ORAL, 2000, 4000 PPM IN FEED FOR 103 WK (STUDY DURATION: 104 WK), 2000, 4000 PPM IN FEED FOR 103 WK (STUDY DURATION: 104 WK), Tumor Site: Type of Lesion: PREPUTIAL GLAND: ADENOMA, ADENOMA OR PAPILLOMA, CARCINOMA): active; positive

O=Cc1ccc(CCl)o1
carcinogen call (Species: MOUSE, Strain/Sex: B6C3F1/MALE, Route: INTRAPERITONEAL, 0.1, 0.25 UMOL/G IN 5 µL DMSO/G BW ONCE (STUDY DURATION: 10 MO), 0.1, 0.25 UMOL/G IN 5 µL DMSO/G BW ONCE (STUDY DURATION: 10 MO), Tumor Site: Type of Lesion: LIVER: TUMOR): active; positive

Nc1ccc(N=Nc2ccccc2)c(N)n1
carcinogen call (Species: MOUSE, Strain/Sex: B6C3F1/FEMALE, Route: ORAL, 600, 1200 PPM IN DIET, 600, 1200 PPM IN DIET, Tumor Site: Type of Lesion: LIVER: HEPATOCELLULAR ADENOMA OR HEPATOCELLULAR CARCINOMA): active; positive | carcinogen call (Species: MOUSE, Strain/Sex: B6C3F1/MALE, Route: ORAL, 600, 1200 PPM IN DIET, 600, 1200 PPM IN DIET): active; positive | carcinogen call (Species: RAT, Strain/Sex: F344/FEMALE, Route: ORAL, 3700, 7500 PPM IN DIET, 3700, 7500 PPM IN DIET, Tumor Site: Type of Lesion: COLON: ADENOCARCINOMA (NOS)): active; positive | carcinogen call (Species: RAT, Strain/Sex: F344/MALE, Route: ORAL, 3700, 7500 PPM IN DIET, 3700, 7500 PPM IN DIET, Tumor Site: Type of Lesion: INTESTINES (COLON OR RECTUM): ADENOCARCINOMA (NOS), ADENOCARCINOMA (NOS) OR ADENOMA (NOS)): active; positive

CC(CN1CC(=O)NC(=O)C1)N1CC(=O)NC(=O)C1 (stereo not given)
carcinogen call (Species: MOUSE, Strain/Sex: B6C3F1/FEMALE, Route: INTRAPERITONEAL, 40, 80 MG/KG IN BUFFERED SALINE 3/WK FOR 52 WK, 40, 80 MG/KG IN BUFFERED SALINE 3/WK FOR 52 WK, Tumor Site: Type of Lesion: LYMPHATIC SYSTEM: HISTIOCYTIC LYMPHOMA): active; positive | carcinogen call (Species: MOUSE, Strain/Sex: B6C3F1/MALE, Route: INTRAPERITONEAL, 40, 80 MG/KG IN BUFFERED SALINE 3/WK FOR 52 WK, 40, 80 MG/KG IN BUFFERED SALINE 3/WK FOR 52 WK): inactive; negative | carcinogen call (Species: RAT, Strain/Sex: SPRAGUE-DAWLEY/FEMALE, Route: INTRAPERITONEAL, 48, 96 MG/KG IN BUFFERED SALINE 3/WK FOR 52 WK, 48, 96 MG/KG IN BUFFERED SALINE 3/WK FOR 52 WK, Tumor Site: Type of Lesion: UTERUS: ADENOCARCINOMA (NOS)): active; positive | carcinogen call (Species: RAT, Strain/Sex: SPRAGUE-DAWLEY/MALE, Route: INTRAPERITONEAL, 48, 96 MG/KG IN BUFFERED SALINE 3/WK FOR 52 WK, 48, 96 MG/KG IN BUFFERED SALINE 3/WK FOR 52 WK): inactive; negative

— PubChem BioAssay AID1259411 (Chemical Carcinogenesis Research Information System (CCRIS), 2018)
